Where two headings read alike, the source gives them in different places.
Key:
[1] = tested on: shoots having emerged from ripe seeds of barley; conditions: cited from earlier work
[2] = tested on: immature embryos of maize (cultivar: A188); conditions: 3 days
[3] = tested on: immature embryos of maize (cultivar: H99)
[4] = tested on: immature embryos of maize (cultivar: A188); conditions: co-culture 1 week on media containing copper sulfate, then 1 week on PPT selective medium; FIG. 3
Protocol: (§1) These calli were cultured on the same medium containing 10 mg/l PPT for 6 weeks under the same conditions. Grown PPT-resistant calli were seeded on LSZ regeneration medium (LSD 1.5 medium deprived of 2,4-D and supplemented with 5 mg/l zeatin) and incubated at 25° C. under illumination for 2-3 weeks. Leaf segments of regenerated plants were excised and assessed for the expression of the GUS gene by X-gluc.
After co-culture for 1 week, the calli grown from immature embryos (cultivar: A188) cultured on a selective medium containing PPT for 1 week were evaluated on a scale of four ratings from 0 (no callus formed) to 3 (the entire scutellum formed callus). […] Further selection on a medium containing PPT and incubation of the resulting calli in a regeneration medium containing PPT gave PPT-resistant plants. Leaf segments of these plants were excised and assessed for the expression of the GUS gene.

[5] = tested on: immature embryos of maize (cultivar: A188)
Description: Transformation efficiency can be calculated by e.g., counting the number of regenerated plants expressing the GUS gene as transformants among those obtained from inoculated immature embryos and dividing the total number by the number of inoculated immature embryos. Alternatively, it can also be calculated by counting the number of regenerated plants showing resistance against a selective pressure as transformants and dividing the total number by the number of inoculated immature embryos.
as §1
After co-culture for 1 week, the calli grown from immature embryos (cultivar: A188) cultured on a selective medium containing PPT for 1 week were evaluated on a scale of four ratings from 0 (no callus formed) to 3 (the entire scutellum formed callus).

[6] = tested on: immature embryos of rice (cultivar: IR64); conditions: 5 μM copper sulfate in co-culture medium, 1 week; FIG. 4
Protocol: Into an Eppendorf tube containing aseptically collected immature embryos (cultivar: IR64) was added 1 ml of the Agrobacterium suspension and the tube was agitated for 30 seconds in a vortex mixer and then allowed to stand at room temperature for 5 minutes.

[7] = tested on: immature embryos of rice (cultivar: Yukihikari); conditions: 0-50 μM in inoculum liquid media; co-culture one week; three experiments; FIG. 7
Protocol: An Agrobacterium tumefaciens super-binary vector designated LBA4404 (pSB134) cultured on AB medium containing 50 mg/l hygromycin and 50 mg/l spectinomycin for 3 to 4 days was scraped with a platinum loop and suspended at a concentration of about 10^9 cfu/ml in 1 ml of AA1 liquid medium containing 100 μM acetosyringone and 0-50 μM CuSO4.5H2O or copper gluconate. Into an Eppendorf tube containing aseptically collected immature embryos (cultivar: Yukihikari) was added 1 ml of the Agrobacterium suspension and the tube was agitated for 30 seconds in a vortex mixer and then allowed to stand at room temperature for 5 minutes. The immature embryos were seeded on nN6-As medium and incubated in darkness at 25° C. for one week.
The weight of co-cultured immature embryos was measured.

[8] = tested on: regenerated plants of maize (cultivar: A188); conditions: 10 μM in LSZ regeneration medium, 3 weeks; FIG. 8
Protocol: The transformed callus was cut into a size of about 2 mm and plated on LSZ regeneration medium containing 10 μM CuSO4.5H2O or copper gluconate, and PPT. After incubation at 25° C. under illumination for 3 weeks, the leaf length of regenerated plants was measured.

[9] = tested on: regenerated plants of rice (cultivar: Yukihikari); conditions: 10 μM in N6R regeneration medium, 3 weeks; FIG. 9
Protocol: Immature embryos of rice (cultivar: Yukihikari) were inoculated with Agrobacterium tumefaciens LBA4404 (pSB134) and cultured on nN6CC medium (N6 salts, N6 vitamins, 0.5 g/l casamino acids, 0.5 g/l L-proline, 1 mg/l 2,4-D, 0.5 mg/l NAA, 0.1 mg/l 6BA, 20 g/l sucrose, 55 g/l sorbitol, 250 mg/l cefotaxime, 250 mg/l carbenicillin, 5 g/l Gelrite, pH 5.8) containing hygromycin to give a transformed callus. The transformed callus was cut into a size of about 2 mm and seeded on N6R regeneration medium (N6 salts with major salts reduced to ½, N6 vitamins, AA amino acids, 1 g/l casamino acids, 0.5 mg/l kinetin, 20 g/l sucrose, 30 g/l sorbitol, 4 g/l Gelrite, pH 5.8) containing 10 μM CuSO4.5H2O or copper gluconate, and hygromycin. After incubation at 25° C. under illumination for 3 weeks, the leaf length of regenerated plants was measured.

[10] = tested on: immature embryos of maize (cultivar: H99); conditions: media containing 1-10 μM copper sulfate (1-100 μM tested); but slightly; cited from earlier work
anthers of wheat = conditions: medium containing 10 mg/l copper sulfate and 2.5-5 mg/l silver nitrate; cited from earlier work
[11] = tested on: calli obtained by culturing immature embryos of barley; conditions: media containing copper sulfate; cited from earlier work
[12] = tested on: calli obtained by culturing immature embryos of rice; conditions: media containing copper sulfate; cited from earlier work
[13] = tested on: immature embryos of maize (cultivar: A188); experiment: Callus formation of immature embryos after 7 days on co-culture media; assay type: cell-based; conditions: 1 week, FIG. 6
[14] = 1 μM CuSO4 in co-culture medium, 13 inoculated immature embryos
[15] = 5 μM CuSO4 in co-culture medium, 13 inoculated immature embryos
[16] = 10 μM CuSO4 in co-culture medium, 14 inoculated immature embryos

In the case of `OC[C@H]1O[C@H](O[C@H]2[C@H](O)[C@@H](O)C(O)O[C@@H]2CO)[C@H](O)[C@@H](O)[C@@H]1O` (mixture of isomers) [maltose, reference compound], the “brown tissue when shoot meristematic cultures are induced” value [1] is given as “effective for decreasing brown tissue”.
In the case of `O=S(=O)([O-])[O-].[Cu+2]` [copper sulfate], the “area of the scutellum showing transient expression of the GUS gene vs control medium” value (from here on “area … vs control medium”) ([2]; 1, 5 and 10 μM copper sulfate in co-culture media, with or without heat/centrifugation pretreatment, FIG. 1) is reported as “wider area”, the “average callus diameter greater than that on control co-culture medium” value [3] is reported as at least 2 mm and the “PPT-resistant callus formation vs control medium” value [4] is reported as “higher callus formation”. For the same molecule, the “Transformation efficiency (B/A, %)” value ([5]; 1 μM CuSO4 in co-culture medium) was 15.4%, the “Number of GUS-positive plants (B)” value [5, 14] was 2 and the “Number of regenerated plants” value [5, 14] was 2. The “Transformation efficiency (B/A, %)” value ([5]; 5 μM CuSO4 in co-culture medium) was 46.2%, the “Number of GUS-positive plants (B)” value [5, 15] was 6 and the “Number of regenerated plants” value [5, 15] was 6. For the same molecule, the “Transformation efficiency (B/A, %)” value ([5]; 10 μM CuSO4 in co-culture medium) was 35.7%, the “Number of GUS-positive plants (B)” value [5, 16] was 5 and the “Number of regenerated plants” value [5, 16] was 6. For the same molecule, the “area … vs control medium” value [6] was “wider area”, the “growth (weight) of co-cultured immature embryos vs control medium” value [7] was “more active growth” and the “leaf length of regenerated plants vs control regeneration medium” value (“leaf length … vs control regeneration medium” for short) [8] was “significantly longer”. The “leaf length … vs control regeneration medium” value [9] was “significantly longer”, the “shoot growth when shoot meristematic cultures are induced” value [1] was “effective for promoting shoot growth” and the “induction ratio of shoot meristematic cultures (SMCs)” value ([1]; medium containing 5 μM copper sulfate and 30 g/l maltose) was “increases”. The “callus formation from immature embryos” value [10] was “improved”, the embryoid formation (anthers of wheat) was “increases” and the “regeneration ratio or number of regenerated plants per callus” value [11] was “increases”. For the same molecule, the “regeneration ratio or number of regenerated plants per callus” value [12] was “increases”.
For copper gluconate, the “callus formation vs medium lacking copper gluconate” value ([13]; 1, 5 and 10 μM copper gluconate in co-culture media) was “higher callus formation”, the “callus formation vs control” value ([13]; 5 and 10 μM copper gluconate in co-culture media) was “significantly higher callus formation” and the “area … vs control medium” value ([2]; 1, 5 and 10 μFM copper gluconate in co-culture media, heat/centrifugation pretreatment, FIG. 5) was “wider area”. The “growth (weight) of co-cultured immature embryos vs control medium” value [7] was “more active growth”, the “leaf length … vs control regeneration medium” value [8] was “significantly longer” and the “leaf length … vs control regeneration medium” value [9] was “significantly longer”.
With `O=[N+]([O-])[O-].[Ag+]` [silver nitrate, reference compound] the “callus growth vs control medium” value ([3]; 5 μM silver nitrate in co-culture medium, 3 days, then about 4 weeks without selection, FIG. 2) was “nearly comparable”.

— patent US7709700B2, “Method for improving plant transformation efficiency by adding copper ion” (Japan Tobacco Inc., priority 2003, dated 2010)
